The text below walks through data of patent US8604061B2, “2-aminooxazolines as TAAR1 ligands” (Hoffmann-La Roche Inc., priority 2007, dated 2013).

This assay deals with TAAR1 (Mus musculus, UniProt Q923Y8). The assay can be described thus: TAAR1 radioligand binding, membranes of stably transfected HEK293 cells (mouse). As for the experimental part: For the construction of expression plasmids the coding sequences of human, rat and mouse TAAR 1 were amplified from genomic DNA essentially as described by Lindemann et al.. The Expand High Fidelity PCR System (Roche Diagnostics) was used with 1.5 mM Mg^2+ and purified PCR products were cloned into pCR2.1-TOPO cloning vector (Invitrogen) following the instructions of the manufacturer. PCR products were subcloned into the pIRESneo2 vector (BD Clontech, Palo Alto, Calif.), and expression vectors were sequence verified before introduction in cell lines.
HEK293 cells (ATCC #CRL-1573) were cultured essentially as described Lindemann et al. (2005). For the generation of stably transfected cell lines HEK293 cells were transfected with the pIRESneo2 expression plasmids containing the TAAR coding sequences (described above) with Lipofectamine 2000 (Invitrogen) according to the instructions of the manufacturer, and 24 hrs post transfection the culture medium was supplemented with 1 mg/ml G418 (Sigma, Buchs, Switzerland). After a culture period of about 10 d clones were isolated, expanded and tested for responsiveness to trace amines (all compounds purchased from Sigma) with the cAMP Biotrak Enzyme immunoassay (EIA) System (Amersham) following the non-acetylation EIA procedure provided by the manufacturer.
Cells at confluence were rinsed with ice-cold phosphate buffered saline without Ca^2+ and Mg^2+ containing 10 mM EDTA and pelleted by centrifugation at 1000 rpm for 5 min at 4° C. The pellet was then washed twice with ice-cold phosphate buffered saline and cell pellet was frozen immediately by immersion in liquid nitrogen and stored until use at −80° C. Cell pellet was then suspended in 20 ml HEPES-NaOH (20 mM), pH 7.4 containing 10 mM EDTA, and homogenized with a Polytron (PT 3000, Kinematica) at 10,000 rpm for 10 s. The homogenate was centrifuged at 48,000×g for 30 min at 4° C. and the pellet resuspended in 20 ml HEPES-NaOH (20 mM), pH 7.4 containing 0.1 mM EDTA (buffer A), and homogenized with a Polytron at 10,000 rpm for 10 s. The homogenate was then centrifuged at 48,000×g for 30 min at 4° C. and the pellet resuspended in 20 ml buffer A, and homogenized with a Polytron at 10,000 rpm for 10 s. Protein concentration was determined by the method of Pierce (Rockford, Ill.). The homogenate was then centrifuged at 48,000×g for 10 min at 4° C., resuspended in HEPES-NaOH (20 mM), pH 7.0 including MgCl2 (10 mM) and […] homogenized with a Polytron at 10,000 rpm for 10 s.
Binding assay was performed at 4° C. in a final volume of 1 ml, and with an incubation time of 30 min. […] Non-specific binding was defined as the amount of [^3H]-rac-2-(1,2,3,4-tetrahydro-1-naphthyl)-2-imidazoline bound in the presence of the appropriate unlabelled ligand (10 μM). Competing ligands were tested in a wide range of concentrations (10 pM-30 μM). […] Each experiment was performed in duplicate. All incubations were terminated by rapid filtration through UniFilter-96 plates (Packard Instrument Company) and glass filter GF/C, pre-soaked for at least 2 h in polyethylenimine 0.3%, and using a Filtermate 96 Cell Harvester (Packard Instrument Company). The tubes and filters were then washed 3 times with 1 ml aliquots of cold buffer B. Filters were not dried and soaked in Ultima gold (45 μl/well, Packard Instrument Company) and bound radioactivity was counted by a TopCount Microplate Scintillation Counter (Packard Instrument Company).

[1] abbreviates: mouse/rat, cell not marked 'rat', radioligand [3H]-rac-2-(1,2,3,4-tetrahydro-1-naphthyl)-2-imidazoline, 4° C., read-out: Ki (μM) mouse/rat.

Structures are written as SMILES. Like-named read-outs stand apart in the source and are kept apart here.

On to `C[C@]1(c2ccc(Br)cc2)COC(N)=N1` [Example 231, (S)-4-(4-Bromo-phenyl)-4-methyl-4,5-dihydro-oxazol-2-ylamine], for which the Ki under setting [1] worked out at 0.0025 µM.
In the case of `NC1=N[C@@H](c2ccc(Br)cc2)CO1` [Example 105, (S)-4-(4-Bromo-phenyl)-4,5-dihydro-oxazol-2-ylamine], under setting [1], the Ki worked out at 0.0007 µM.
Same read-out and setting: the same measure for `C[C@]1(CCc2ccc(F)cc2)COC(N)=N1` [Example 255, (S)-4-[2-(4-Fluoro-phenyl)-ethyl]-4-methyl-4,5-dihydro-oxazol-2-ylamine]: 0.0074 µM; for `NC1=N[C@@H](c2cc(F)c(F)cc2F)CO1` [Example 107, (S)-4-(2,4,5-Trifluoro-phenyl)-4,5-dihydro-oxazol-2-ylamine]: 0.004 µM; for `CCC(C[C@H]1COC(N)=N1)c1ccc(C(F)(F)F)cc1` (stereo partly drawn) [Example 184, (S)-4-[2-(4-Trifluoromethyl-phenyl)-butyl]-4,5-dihydro-oxazol-2-ylamine]: 0.0063 µM.
In the case of `NC1=N[C@@H](c2cccc(F)c2F)CO1` [Example 9, (S)-4-(2,3-Difluoro-phenyl)-4,5-dihydro-oxazol-2-ylamine], under setting [1], the Ki was found to be 0.0034 µM.
The same measure, in the same setting: the same measure for `C[C@]1(c2cc(Cl)ccc2F)COC(N)=N1` [Example 270, (S)-4-(5-Chloro-2-fluoro-phenyl)-4-methyl-4,5-dihydro-oxazol-2-ylamine]: 0.0016 µM.
The same measure, in the same setting: then `C[C@]1(c2cccc(C(F)(F)F)c2)COC(N)=N1` [Example 219, (S)-4-Methyl-4-(3-trifluoromethyl-phenyl)-4,5-dihydro-oxazol-2-ylamine], with 0.0009 µM; and `C[C@@H](C[C@H]1COC(N)=N1)c1ccccc1` [82 (S, S), (S)-4-((S)-2-phenyl-propyl)-4,5-dihydro-oxazol-2-ylamine], with 0.008 µM.
The same measure, in the same setting: the same measure for `Cc1ccccc1CC[C@H]1COC(N)=N1` [Example 114, (S)-4-(2-o-Tolyl-ethyl)-4,5-dihydro-oxazol-2-ylamine]: 0.0021 µM; for `NC1=N[C@@H](c2ccc(Br)c(Cl)c2)CO1` [Example 330, (+)-(S)-4-(4-Bromo-3-chloro-phenyl)-4,5-dihydro-oxazol-2-ylamine]: 0.0008 µM; for `NC1=N[C@@H](CCc2cccc(OC(F)(F)C(F)F)c2)CO1` [Example 141, (S)-4-{2-[3-(1,1,2,2-Tetrafluoro-ethoxy)-phenyl]-ethyl}-4,5-dihydro-oxazol-2-ylamine]: 0.0027 µM.
`NC1=N[C@@H](c2cccc(Cl)c2)CO1` [Example 192, (+)-(S)-4-(3-Chloro-phenyl)-4,5-dihydro-oxazol-2-ylamine]: the Ki under setting [1] was determined as 0.0019 µM.
`NC1=NC(c2ccc(F)cc2C(F)(F)F)CO1` (racemic) [Example 224, (RS)-4-(4-Fluoro-2-trifluoromethyl-phenyl)-4,5-dihydro-oxazol-2-ylamine] gave a Ki of 0.0063 µM.
For `CCC(C[C@H]1COC(N)=N1)c1cc(Cl)ccc1F` (stereo partly drawn) [Example 358, (S)-4-[2-(5-Chloro-2-fluoro-phenyl)-butyl]-4,5-dihydro-oxazol-2-ylamine], the Ki under setting [1] is 0.0084 µM.
Take `CC1(c2cc(F)c(F)cc2F)COC(N)=N1` (racemic) [Example 251, (RS)-4-Methyl-4-(2,4,5-trifluoro-phenyl)-4,5-dihydro-oxazol-2-ylamine]: under setting [1], the Ki turned out to be 0.0086 µM.
As for `NC1=N[C@@H](CCc2ccccc2)CO1` [Example 80 (S), (S)-4-Phenethyl-4,5-dihydro-oxazol-2-ylamine], under setting [1], the Ki turned out to be 0.0008 µM.
As for `NC1=N[C@@H](Cc2cccc(C(F)(F)F)c2)CO1` [Example 63, (S)-4-(3-Trifluoromethyl-benzyl)-4,5-dihydro-oxazol-2-ylamine], the Ki under setting [1] was 0.0086 µM.
On to `NC1=N[C@@H](Cc2ccc3ccccc3c2)CO1` [Example 49, (S)-4-Naphthalen-2-ylmethyl-4,5-dihydro-oxazol-2-ylamine], for which the Ki under setting [1] worked out at 0.0054 µM.
On the same count and under the same terms, the same measure for `CCC(C[C@H]1COC(N)=N1)c1ccccc1` (stereo partly drawn) [Example 163, (S)-4-(2-Phenyl-butyl)-4,5-dihydro-oxazol-2-ylamine]: 0.0037 µM.
Same read-out and setting: the same measure for `NC1=N[C@@H](c2ccccc2C(F)(F)F)CO1` [Example 122, (S)-4-(2-Trifluoromethyl-phenyl)-4,5-dihydro-oxazol-2-ylamine]: 0.0034 µM; for `NC1=N[C@H](CCc2ccc(Cl)c(Cl)c2)CO1` [Example 124, (R)-4-[2-(3,4-Dichloro-phenyl)-ethyl]-4,5-dihydro-oxazol-2-ylamine]: 0.0044 µM; for `C[C@]1(c2ccccc2Cl)COC(N)=N1` [Example 180, (S)-4-(2-Chloro-phenyl)-4-methyl-4,5-dihydro-oxazol-2-ylamine]: 0.0088 µM.
As for `C[C@]1(CCc2cccc(Cl)c2)COC(N)=N1` [Example 246, (S)-4-[2-(3-Chloro-phenyl)-ethyl]-4-methyl-4,5-dihydro-oxazol-2-ylamine], under setting [1], the Ki was determined as 0.0055 µM.
On the same count and under the same terms, then `CC[C@@H](C[C@H]1COC(N)=N1)c1ccccc1` [Example 292, (S)-4-((S)-2-Phenyl-butyl)-4,5-dihydro-oxazol-2-ylamine], with 0.0035 µM.
The same measure, in the same setting: then `NC1=N[C@@H](c2cccc(Cl)c2F)CO1` [Example 109, (S)-4-(3-Chloro-2-fluoro-phenyl)-4,5-dihydro-oxazol-2-ylamine], with 0.0014 µM.
The molecule `NC1=NC(c2cc(Cl)c(Cl)cc2C(F)(F)F)CO1` (racemic) [Example 234, (RS)-4-(4,5-Dichloro-2-trifluoromethyl-phenyl)-4,5-dihydro-oxazol-2-ylamine] returned a Ki of 0.0093 µM.
`NC1=NC(c2cccc(F)c2C(F)(F)F)CO1` (racemic) [Example 371, (RS)-4-(3-Fluoro-2-trifluoromethyl-phenyl)-4,5-dihydro-oxazol-2-ylamine] had a Ki of 0.0096 µM.
As to `C[C@]1(c2cc(F)c(Cl)cc2F)COC(N)=N1` [Example 289, (S)-4-(4-Chloro-2,5-difluoro-phenyl)-4-methyl-4,5-dihydro-oxazol-2-ylamine], under setting [1], the Ki is 0.0017 µM.
Still for that read-out and setting: then `NC1=N[C@@H](c2ccccc2Cl)CO1` [Example 4, (S)-4-(2-Chloro-phenyl)-4,5-dihydro-oxazol-2-ylamine], with 0.0012 µM; and `NC1=N[C@@H](c2ccc(F)c(F)c2)CO1` [Example 166, (S)-4-(3,4-Difluoro-phenyl)-4,5-dihydro-oxazol-2-ylamine], with 0.0047 µM.
Same read-out and setting: then `NC1=N[C@@H](CCc2ccccc2Cl)CO1` [Example 267, (S)-4-[2-(2-Chloro-phenyl)-ethyl]-4,5-dihydro-oxazol-2-ylamine], with 0.0011 µM; and `NC1=N[C@@H](c2ccc(F)c(Br)c2F)CO1` [Example 29 (S), (S)-4-(3-Bromo-2,4-difluoro-phenyl)-4,5-dihydro-oxazol-2-ylamine], with 0.0054 µM.
`Cc1ccc(C2COC(N)=N2)cc1Cl` (racemic) [Example 351, (RS)-4-(3-Chloro-4-methyl-phenyl)-4,5-dihydro-oxazol-2-ylamine] registered a Ki of 0.0024 µM.
Turning to `COc1ccc([C@H]2COC(N)=N2)cc1Cl` [Example 131, (S)-4-(3-Chloro-4-methoxy-phenyl)-4,5-dihydro-oxazol-2-ylamine], the Ki under setting [1] came out at 0.0024 µM.
Regarding `Cc1cc(CC[C@H]2COC(N)=N2)ccc1F` [Example 140, (S)-4-[2-(4-Fluoro-3-methyl-phenyl)-ethyl]-4,5-dihydro-oxazol-2-ylamine], under setting [1], the Ki was found to be 0.001 µM.
For the molecule `NC1=N[C@@H](c2cccc(Cl)c2Cl)CO1` [Example 168, (S)-4-(2,3-Dichloro-phenyl)-4,5-dihydro-oxazol-2-ylamine], the Ki under setting [1] amounted to 0.0006 µM.
Take `NC1=N[C@@H](c2ccc(F)c(Cl)c2)CO1` [Example 172, (S)-4-(3-chloro-4-fluoro-phenyl)-4,5-dihydro-oxazol-2-ylamine]: under setting [1], the Ki was 0.0019 µM.
